Measurements: publication PMC9886550, “Molecular mechanism of topoisomerase poisoning by the peptide antibiotic albicidin” (Nature Catalysis, 2023)
≈ marks a conversion by molar mass, not a printed value. Like-named read-outs stand apart in the source and are kept apart here. Marks after values point to notes of the source that are not given here.

Columns and labels:
[1] = tested on: E. coli DSM116; assay: MIC determination (microdilution, M07-A9); format: cell-based
Protocol: (§1) MIC values were determined according to the ninth edition of the Approved Standard M07-A9. The test was carried out for six different bacterial strains (E. coli DSM 1116 (Gram-negative), E. coli BW25113 (Gram-negative), B. subtilis DSM 10 (Gram-positive), M. luteus DSM 1790 (Gram-positive), M. phlei DSM 750 (Gram-positive), S. typhimurium TA 100 (Gram-negative). First, 20 µl of glycerol stock of each strain was inoculated in 20 ml LB (Lennox) followed by incubation overnight at 37 °C, 200 r.p.m. The test inoculum was adjusted by the 0.5 McFarland Standard. Within 15 min of preparation, the adjusted inoculum suspension was diluted in MHBII so that each well contained approximately 5 × 10^5 c.f.u. ml^−1 in a final volume of 100 µl. Then, 95 µl of the inoculum was applied per well and 5 µl of the (diluted) albicidins was added. For dilutions, the dry powders were dissolved in dimethylsulfoxide (DMSO) with a concentration of 2.56 mg ml^−1, and the obtained stock solutions were further diluted in DMSO. Next, 5 µl of each antibiotic dilution was applied to the microdilution tray to reach final concentrations of 8 to 0.016 µg ml^−1. One row of each well plate served as a growth control without antibiotic and another row of the microdilution tray served as a sterility control (only MHBII media). The antimicrobial effect of the solvent was tested by adding 5 µl DMSO to several wells. Purity check and cell titre control were performed according to International Standard M07-A9 on Mueller–Hinton II Agar. Both microdilution trays and agar plates were incubated at 37 °C for 20 h.

[2] = tested on: E. coli BW25113; assay: MIC determination (microdilution, M07-A9); format: cell-based; conditions: E. coli BW25113
Protocol: as §1

[3] = tested on: M. phlei DSM750; assay: MIC determination (microdilution, M07-A9); format: cell-based; conditions: Mycolicibacterium phlei
Protocol: as §1

[4] = tested on: S. typhimurium TA100; assay: MIC determination (microdilution, M07-A9); format: cell-based
Protocol: as §1

[5] = tested on: B. subtilis DSM10; assay: MIC determination (microdilution, M07-A9); format: cell-based; conditions: Bacillus subtilis
Protocol: as §1

[6] = tested on: M. luteus DSM1790; assay: MIC determination (microdilution, M07-A9); format: cell-based
Protocol: as §1

[7] = tested on: selected Gram-negative and Gram-positive microorganisms; assay: MIC activity groups over all tested strains; format: cell-based; parameters: key: a: most potent; b: intermediate; least active; conditions: MIC panel
Protocol: as §1

[8] = target: T1, WT E. coli gyrase (Escherichia coli, UniProt P0AES4+P0AES6); assay: biochemical; format: biochemical; conditions: WT gyrase 20 nM; in words
T1 construct: alternative cryo-EM approach involving full-length E. coli gyrase; 10-His (cleaved yes); Twin-Strep (cleaved yes); made in house
T1 sequence (P0AES4 whole entry, one chain of several): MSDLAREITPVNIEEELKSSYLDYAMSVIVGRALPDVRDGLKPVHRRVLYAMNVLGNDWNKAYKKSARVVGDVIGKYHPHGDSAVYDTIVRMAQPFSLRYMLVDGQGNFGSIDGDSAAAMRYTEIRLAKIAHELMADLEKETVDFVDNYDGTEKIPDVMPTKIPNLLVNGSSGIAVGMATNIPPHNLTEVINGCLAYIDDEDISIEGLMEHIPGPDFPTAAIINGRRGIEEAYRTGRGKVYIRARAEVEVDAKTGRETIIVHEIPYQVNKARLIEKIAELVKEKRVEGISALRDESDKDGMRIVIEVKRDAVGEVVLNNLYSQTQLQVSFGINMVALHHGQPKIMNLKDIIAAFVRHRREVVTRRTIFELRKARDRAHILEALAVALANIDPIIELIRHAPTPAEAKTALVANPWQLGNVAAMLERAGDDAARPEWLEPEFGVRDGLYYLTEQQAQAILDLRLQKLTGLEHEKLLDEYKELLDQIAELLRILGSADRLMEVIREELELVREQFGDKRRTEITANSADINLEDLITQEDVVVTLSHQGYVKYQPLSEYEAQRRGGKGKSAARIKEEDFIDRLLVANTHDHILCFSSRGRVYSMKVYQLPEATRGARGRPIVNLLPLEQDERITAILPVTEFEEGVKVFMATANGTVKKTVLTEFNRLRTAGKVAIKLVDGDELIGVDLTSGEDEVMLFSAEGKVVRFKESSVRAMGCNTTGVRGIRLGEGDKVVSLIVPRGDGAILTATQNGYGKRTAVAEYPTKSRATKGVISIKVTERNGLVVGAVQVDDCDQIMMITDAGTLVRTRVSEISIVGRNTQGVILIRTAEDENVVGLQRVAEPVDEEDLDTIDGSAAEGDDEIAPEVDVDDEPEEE
Protocol: For DNA gyrase supercoiling assays to characterize gyrase mutants, 15 µl reactions were set up containing 250 ng of relaxed DNA, E. coli gyrase supercoiling buffer (35 mM Tris–Cl pH 7.5, 24 mM KCl, 4 mM MgCl2, 2 mM DTT, 1.8 mM spermidine, 1 mM ATP, 6.0% (w/v) glycerol, and 0.1 mg ml^−1 BSA), gyrase subunits and inhibitors. Concentrations of enzyme and inhibitor are stated in the figure legends. Inhibitors were diluted in the following way to reduce the chance of precipitation: stock compound in 100% DMSO was diluted to 5 mM in 100% DMSO. This compound solution was diluted to 1 mM by stepwise addition of 1 µl of 50% DMSO with thorough mixing via pipetting after each addition. All subsequent dilutions up to 100 µM were performed in the same way using H2O. After this point, compounds were stable and could be diluted in the normal way. Reactions were incubated at 37 °C for 30 min before stopping with 15 µl chloroform:isoamyl alcohol (24:1 v/v) and 15 µl of STEB (40% (w/v) sucrose, 100 mM Tris–Cl pH 8, 10 mM EDTA, 0.5 mg ml^−1 bromophenol blue).
Cleavage assays were set up in the same way as supercoiling assays with some modifications. The concentration of enzyme was increased 4-fold relative to the supercoiling assay and reactions were incubated for 1 h before addition of 0.2% SDS and proteinase K (0.2 mg ml^−1) and further incubation at 37 °C for 30 min to trap cleavage complexes. Reactions were stopped in the same way as supercoiling assays.
Results were visualized by agarose gel electrophoresis: 1% agarose Tris-acetate-EDTA (TAE) gels were run without ethidium bromide (supercoiling) or with 10 µg ml^−1 ethidium bromide (cleavage) at 8 V cm^−1.
DNA cleavage gels were analysed using densitometry (ImageJ). Experiments were carried out in triplicate and expressed as mean ± s.d. Curves were fitted using OriginPro 2021 (Origin Lab) according to a modified Hill equation:1 y=cI+(cF−cI)[…]/(k^n+x^n) where y is the percentage of cleaved DNA, cI is the initial cleavage, cF is the final cleavage, k is the CC50 (the concentration of inhibitor that results in cleavage of 50% of DNA), n is a slope factor and x is the inhibitor concentration.

[9] = target: T2, E. coli gyrase (Escherichia coli, UniProt P0AES4+P0AES6); assay: Gyrase cleavage of linear DNA fragments (Mu217 and others); format: biochemical; conditions: in words
T2 construct: alternative cryo-EM approach involving full-length E. coli gyrase; 10-His (cleaved yes); Twin-Strep (cleaved yes); made in house
T2 sequence (P0AES4 whole entry, the tested form may be a part, one chain of several): as the sequence (P0AES4 whole entry, one chain of several) above
Protocol: Mu217 DNA (25 nM) was incubated with 0.4 µM gyrase and indicated concentrations (1 or 10 µM) of diazirine-labelled albicidin (photo-Albi, φAlbi) in a volume of 20 µl (~70 ng DNA) at 37 °C for 30 min in gyrase cleavage buffer (see section 'Topoisomerase assays'). For CFX competition experiments, 30 µM CFX was added first, followed by the albicidin. Reactions were either irradiated with ultraviolet 365 nm (benchtop transilluminator) with cooling (ice) for 30 min or left on ice for 30 min (‘dark’). Then, 0.2% SDS and 0.2 mg ml^−1 proteinase K were added to both samples, which were incubated for another 30 min. Reactions were mixed with loading dye (STEB) and chloroform:isoamyl alcohol (24:1 v/v) before vortexing and centrifugation. The aqueous phase was loaded on 4–20% TBE (Tris–borate–EDTA) polyacrylamide gel (Thermo) and ran for 1 h at 150 V. DNA was visualized with SYBR Gold (Thermo) staining.
Extended Data Fig. 1 Length dependency of albicidin-mediated DNA cleavage. Position of cleaved DNA indicated by arrows and red dots. ATP and ADPNP were added as indicated, (----) stands for no nucleotide added. 20 nM gyrase, 1 µM albicidin and 25 nM DNA was used in each reaction.
Extended Data Fig. 5 Photocrosslinking of diazirine-labelled albicidin (photo-Albi) to the DNA. a. Structures of N-terminal photo-Albi and control compound. b. DNA cleavage assay with Mu217 fragment and indicated concentrations of compounds. The labelled DNA band appearing upon irradiation of a photo-compound when bound to the complex is marked by a yellow star. c. Ciprofloxacin competition experiment. Pre-incubation with excess CFX prevents albicidin binding and crosslinking. Details of the experiment are available in Methods section.

[10] = E. coli DSM116, second value in cell (biological replicate)
[11] = Escherichia coli, E. coli DSM116, first value in cell (biological replicate), read-out: MIC
[12] = Escherichia coli, first value in cell (biological replicate), read-out: MIC
[13] = first value in cell (biological replicate)
[14] = second value in cell (biological replicate)
[15] = Salmonella enterica, first value in cell (biological replicate), read-out: MIC
[16] = Micrococcus luteus, first value in cell (biological replicate), read-out: MIC

Row | SMILES | MIC [1, 10] | MIC [1, 11] [µg/mL] | MIC [2, 12] [µg/mL] | MIC [3, 13] [µg/mL] | MIC [3, 14] [µg/mL] | MIC [4, 15] [µg/mL] | MIC [5, 13] [µg/mL] | MIC [5, 14] [µg/mL] | MIC [6, 16] [µg/mL] | MIC [6, 14] | activity group (superscript letter) [7] | activity in a DNA cleavage assay relative to albicidin [8] | MIC ([1]; Escherichia coli, DSM116, E. coli DSM116, first value in cell (biological replicate), read-out: MIC) [µg/mL] | MIC ([1]; Escherichia coli, DSM116, E. coli DSM116, second value in cell (biological replicate), read-out: MIC) [µg/mL] | MIC [2, 14] | MIC [4, 14] | activity against gyrase [9]
1 | COc1ccccc1NC(=O)c1ccc(NC(=O)[C@H](Cc2c[nH]nn2)NC(=O)c2ccc(NC(=O)c3ccc(C#N)cc3)cn2)cn1 [AE-1] | >8.0 >8.0 µg ml^−1 | > 8 | > 8 | > 8 | > 8 | > 8 | > 8 | > 8 | > 8 | >8.0 >8.0 µg ml^−1 | AE-1^c |  |  |  |  |  | 
2 | COc1ccccc1NC(=O)c1ccc(NC(=O)[C@H](Cc2c[nH]nn2)NC(=O)c2ccc(NC(=O)c3ccc(C#N)cc3)cc2)cn1 [AE-2] | >8.0 >8.0 µg ml^−1 | > 8 | > 8 | > 8 | > 8 | > 8 | > 8 | > 8 | > 8 | >8.0 >8.0 µg ml^−1 | AE-2^c |  |  |  |  |  | 
3 | COc1ccccc1NC(=O)c1ccc(NC(=O)[C@H](Cc2c[nH]nn2)NC(=O)c2ccc(NC(=O)/C(C)=C/c3ccc(O)cc3)cc2)cn1 [AE-3] | >8.0 >8.0 µg ml^−1 | > 8 | > 8 | > 8 | > 8 | > 8 | > 8 | > 8 | > 8 | >8.0 >8.0 µg ml^−1 | AE-3^c |  |  |  |  |  | 
4 | CC(C)Oc1ccccc1NC(=O)c1ccc(NC(=O)[C@H](Cc2c[nH]nn2)NC(=O)c2ccc(NC(=O)c3ccc(C#N)cc3)cn2)cn1 [AE-4] | >8.0 >8.0 µg ml^−1 | > 8 | > 8 | > 8 | > 8 | > 8 | > 8 | > 8 | > 8 | >8.0 >8.0 µg ml^−1 | AE-4^c |  |  |  |  |  | 
5 | COc1c(NC(=O)c2ccc(NC(=O)[C@H](Cc3c[nH]nn3)NC(=O)c3ccc(NC(=O)c4ccc(C#N)cc4)cc3)cn2)ccc(F)c1F [AE-5] | >8.0 >8.0 µg ml^−1 | > 8 | > 8 | > 8 | > 8 | > 8 | > 8 | > 8 | > 8 | >8.0 >8.0 µg ml^−1 | AE-5^c |  |  |  |  |  | 
6 | COc1c(NC(=O)c2ccc(NC(=O)c3ccc(NC(=O)[C@H](Cc4c[nH]nn4)NC(=O)c4ccc(C#Cc5ccc(C#N)cc5)cc4)cn3)c(OC)c2O)ccc(C(=O)O)c1O [Alkyne–Albi] | <0.016 <0.016 µg ml^−1 | < 0.016 | < 0.016 | 0.25 (≈ 0.299 µM) | 0.5 (≈ 0.598 µM) | < 0.016 | 0.063 (≈ 0.0754 µM) | 0.125 (≈ 0.15 µM) | < 0.016 | <0.016 <0.016 µg ml^−1 | Alkyne–Albi^a | as active as albicidin |  |  |  |  | 
7 | COc1c(NC(=O)c2ccc(NC(=O)c3ccc(NC(=O)[C@H](Cc4c[nH]nn4)NC(=O)c4ccc(NC(=O)/C(C)=C/c5ccc(O)cc5)cc4)cn3)c(OC)c2O)ccc(C(=O)O)c1O [Azahis–Albi] |  |  | < 0.016 | 0.125 (≈ 0.141 µM) | 0.5 (≈ 0.564 µM) | < 0.016 | 0.031 (≈ 0.035 µM) | 0.063 (≈ 0.0711 µM) | 0.031 (≈ 0.035 µM) |  |  |  | < 0.016 | < 0.016 | <0.016 <0.016 µg ml^−1 | <0.016 <0.016 µg ml^−1 | 
8 | C#CC[C@H](NC(=O)c1ccc(NC(=O)c2ccc(C3(C(F)(F)F)N=N3)cc2)cc1)C(=O)Nc1ccc(C(=O)Nc2ccc(C(=O)Nc3ccc(C(=O)O)c(O)c3OC)c(O)c2OC)nc1 [photo-Albi] |  |  |  |  |  |  |  |  |  |  |  |  |  |  |  |  | active against gyrase
